Laboratory results: US12662451B2, “Chemical compounds and uses thereof” (GLAXOSMITHKLINE INTELLECTUAL PROPERTY (NO.4) LIMITED, priority 2023, dated 2026)
Structures can show the parent of a compound that is named as a salt.

Experiments:
[1] = biological target: T1, recombinant full-length WRN protein (1-1432) (Homo sapiens, UniProt Q14191); experiment: WRN unwinding activity, fluorogenic 384-well assay (Example A); type: biochemical; settings: WRN unwinding activity, 4 hr; Table 2; read-out: 4 hr UNW pIC50 (converted)
T1 construct: recombinant full-length WRN protein (1-1432)
T1 sequence (Q14191 whole entry): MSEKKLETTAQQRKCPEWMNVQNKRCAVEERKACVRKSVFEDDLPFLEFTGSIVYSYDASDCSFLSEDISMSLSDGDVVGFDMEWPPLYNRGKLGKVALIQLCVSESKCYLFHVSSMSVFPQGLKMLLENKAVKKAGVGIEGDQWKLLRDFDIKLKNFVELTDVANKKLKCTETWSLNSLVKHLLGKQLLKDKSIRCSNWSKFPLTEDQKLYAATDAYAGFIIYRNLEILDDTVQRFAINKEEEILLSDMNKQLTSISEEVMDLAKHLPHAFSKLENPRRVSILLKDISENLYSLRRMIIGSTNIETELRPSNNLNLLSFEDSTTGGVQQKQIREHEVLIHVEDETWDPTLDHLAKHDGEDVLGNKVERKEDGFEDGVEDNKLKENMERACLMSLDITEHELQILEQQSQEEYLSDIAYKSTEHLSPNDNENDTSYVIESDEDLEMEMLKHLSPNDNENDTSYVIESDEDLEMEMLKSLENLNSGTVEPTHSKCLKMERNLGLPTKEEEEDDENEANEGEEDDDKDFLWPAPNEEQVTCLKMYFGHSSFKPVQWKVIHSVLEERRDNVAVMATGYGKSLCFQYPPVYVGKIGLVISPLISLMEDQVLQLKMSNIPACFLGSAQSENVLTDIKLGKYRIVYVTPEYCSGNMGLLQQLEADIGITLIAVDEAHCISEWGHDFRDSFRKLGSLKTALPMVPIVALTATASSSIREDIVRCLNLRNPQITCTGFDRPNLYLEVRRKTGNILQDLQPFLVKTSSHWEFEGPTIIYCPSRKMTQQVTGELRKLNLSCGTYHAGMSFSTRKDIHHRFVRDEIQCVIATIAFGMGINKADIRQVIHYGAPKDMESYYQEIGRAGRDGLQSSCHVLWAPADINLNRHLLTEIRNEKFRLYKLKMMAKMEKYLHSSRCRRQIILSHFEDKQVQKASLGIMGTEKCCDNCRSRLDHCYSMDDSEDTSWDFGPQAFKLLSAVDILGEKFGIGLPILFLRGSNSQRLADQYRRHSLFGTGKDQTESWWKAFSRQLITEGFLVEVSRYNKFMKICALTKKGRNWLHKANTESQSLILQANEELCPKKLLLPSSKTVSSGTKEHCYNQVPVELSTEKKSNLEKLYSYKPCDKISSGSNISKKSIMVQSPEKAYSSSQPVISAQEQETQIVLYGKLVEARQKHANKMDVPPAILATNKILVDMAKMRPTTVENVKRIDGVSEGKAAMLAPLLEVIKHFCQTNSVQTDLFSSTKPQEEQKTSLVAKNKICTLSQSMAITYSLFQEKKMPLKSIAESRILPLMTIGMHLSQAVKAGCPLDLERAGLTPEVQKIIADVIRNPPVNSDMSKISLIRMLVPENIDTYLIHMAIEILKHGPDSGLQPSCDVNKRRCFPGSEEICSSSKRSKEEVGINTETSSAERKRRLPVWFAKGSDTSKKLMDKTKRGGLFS
How it was run: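 Read-out is end-point unwinding of a fluorophore/quencher duplex (ex 525, em 598 nm) after 60 min with 200 μM ATP and 12 nM DNA (2× stocks), EDTA stop. Compound first sat 4 h with 200 pM WRN (2× stock) in pH 8.0 Tris buffer; four-parameter fit gives pIC50.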

[2] = test system: SW48 human colorectal cancer cells (MSI-H cancer cells); experiment: SW48 cell viability, CellTiter-Glo, 120 hours (Example B); settings: Homo sapiens, SW48, 120 h, read-out: SW48 pCC50, SW48 cell viability, 120 hours incubation (converted); Table 2
Description: SW48 human colorectal cancer cells (MSI-H cancer cells) were obtained from the American Type Culture Collection and maintained in growth medium composed of RPMI-1640 supplemented with 10% fetal bovine serum. Cells were maintained in a humidified 5% CO2 incubator at 37° C. Cell dissociation was conducted using TrypLE Select to detach cells from culture flasks. Following dissociation, cells were centrifuged briefly and resuspended in assay medium RPMI-1640+10% fetal bovine serum. Black 384-well assay plates were prepared from source plates of DMSO and compounds dissolved in DMSO prior to cell dispensation. These source plates were prepared in eleven point, 3-fold serial dilutions from 10 mM stocks stored at 4° C. Compounds and DMSO controls were dispensed into assay plates at 150 nanoliters per well from source plates using Labcyte Echo 555 or Echo 655T dispensers with Column 6 and Column 18 containing DMSO only. Cells were then seeded into prepared assay plates in 50 microliters assay medium at 250 cells per well into Columns 1 thru 17 and Columns 19-24. Assay medium without cells was added to column 18 to serve as a surrogate for 100% cell cytotoxicity. Following incubation for 120 hours in a humidified 5% CO2 incubator at 37° C., cellular ATP concentration of each well was measured and used as a surrogate of cell viability. This was performed by adding 50 microliters of CellTiter-Glo reagent to each well followed by a 10-minute incubation at room temperature. Luminescence was measured on a Synergy Neo or Synergy Neo2 multimode plate reader. Compound cytotoxic response (% C) was normalized to the robust means of column 6 (Control 1, 0% Cytotoxicity) and column 18 (Control 2, 100% Cytotoxicity) and normalized % cytotoxicity (% C) calculated. % C=100−100*((Compound−Control 2)/(Control1−Control2)). These normalized data were then used to determine a 50% cytotoxic response (CC50) using 4-parameter logistic curve model 201 in Activity Base XE:
[formula] • where A=minimum asymptote (% cytotoxicity), B=maximum asymptote (% cytotoxicity), C=Log CC50 (pCC50), D=Hill slope, and x=[inhibitor], (M).

| IC50 [1] [µM] | SMILES | CC50 [2] [µM] |
| --- | --- | --- |
| 0.126 | Cc1nc2cc(S(=O)(=O)N(C)c3ccc([C@@H]4C[C@H](OC[C@H]5COCCO5)C[C@H](C(=O)Nc5ccc(C(F)(F)F)cc5F)[C@H]4C(=O)O)cc3)ccc2n1C (stereo in doubt) [Example 328, (1R*,2R*,4R*,6S*)-4-(((R)-1,4-dioxan-2-yl)methoxy)-2-((2-fluoro-4-(trifluoromethyl)phenyl)carbamoyl)-6-(4-((N,1,2-trimethyl-1H-benzo[d]imidazole)-5-sulfonamido)phenyl)cyclohexane-1-carboxylic acid] | 15.8 |
| 0.0251 | Cc1nc2cc(S(=O)(=O)N(C)c3cnc([C@@H]4CCC[C@H](C(=O)Nc5ccc(C(F)(F)F)cc5F)[C@H]4C(=O)O)cn3)ccc2n1C (relative stereo) [Example 165, rel-(1R,2R,6S)-2-((2-fluoro-4-(trifluoromethyl)phenyl)carbamoyl)-6-(5-((N,1,2-trimethyl-1H-benzo[d]imidazole)-5-sulfonamido)pyrazin-2-yl)cyclohexane-1-carboxylic acid] | 25.1 |
| 0.2 | Cc1nc2cc(S(=O)(=O)N(C)c3ccc([C@@H]4C[C@H](OC[C@H]5CCOC5)C[C@H](C(=O)Nc5ccc(C(F)(F)F)cc5F)[C@H]4C(=O)O)cc3)ccc2n1C (stereo in doubt) [Example 318, (1R*,2R*,4R*,6S*)-2-((2-fluoro-4-(trifluoromethyl)phenyl)carbamoyl)-4-(((S)-tetrahydrofuran-3-yl)methoxy)-6-(4-((N,1,2-trimethyl-1H-benzo[d]imidazole)-5-sulfonamido)phenyl)cyclohexane-1-carboxylic acid] | 12.6 |
| 0.00501 | CN(c1ccc([C@H]2CCC[C@@H](C(=O)Nc3ccc(C(F)(F)F)cc3F)[C@@H]2C(=O)O)cc1)S(=O)(=O)c1ccc2oc(=O)n(C)c2c1 [Example 100, (1R,2S,6R)-2-(4-((N,3-dimethyl-2-oxo-2,3-dihydrobenzo[d]oxazole)-5-sulfonamido)phenyl)-6-((2-fluoro-4-(trifluoromethyl)phenyl)carbamoyl)cyclohexane-1-carboxylic acid] | 3.98 |
| 0.00316 | CN(c1ccc([C@H]2CCC[C@@H](C(=O)Nc3ccc(C(F)(F)F)cc3F)[C@@H]2C(=O)O)cc1)S(=O)(=O)c1ccc2ocnc2c1 [Example 106, (1R,2R,6S)-2-((2-fluoro-4-(trifluoromethyl)phenyl)carbamoyl)-6-(4-(N-methylbenzo[d]oxazole-5-sulfonamido)phenyl)cyclohexane-1-carboxylic acid] | 1.58 |
| 0.631 | Cc1nc2cc(S(=O)(=O)N(C)c3ccc([C@@H]4CC[C@H](C)[C@H](C(=O)Nc5ccc(C(F)(F)F)cc5F)[C@H]4C(=O)O)cc3)ccc2n1C (single isomer, unassigned) [Example 236] | 7.94 |
| 0.000794 | Cc1nc2cc(S(=O)(=O)N(C)c3ccc([C@H]4CCC[C@@H](C(=O)Nc5ccc(C(F)(F)F)cc5F)[C@@H]4C(=O)O)cc3)cc([C@@H]3CCCNC3)c2n1C (single isomer, unassigned) [Example 268, (1R,2R,6S)-2-((2-fluoro-4-(trifluoromethyl)phenyl)carbamoyl)-6-(4-((N,1,2-trimethyl-7-((S*)-piperidin-3-yl)-1H-benzo[d]imidazole)-5-sulfonamido)phenyl)cyclohexane-1-carboxylic acid hydrochloride] | 15.8 |
| 0.00158 | Cc1nc2cc(S(=O)(=O)N(C)c3ccc([C@H]4COC[C@@H](C(=O)Nc5ccc(C(F)(F)F)cc5F)[C@@H]4C(=O)O)cc3)ccc2n1C (racemic) [Example 232, rac-(3R,4S,5R)-3-((2-fluoro-4-(trifluoromethyl)phenyl)carbamoyl)-5-(4-((N,1,2-trimethyl-1H-benzo[d]imidazole)-5-sulfonamido)phenyl)tetrahydro-2H-pyran-4-carboxylic acid] | 1.26 |
| 0.00501 | Cc1nc2cc(S(=O)(=O)N3CCOc4cc([C@H]5CCC[C@@H](C(=O)Nc6ccc(C(F)(F)F)cc6F)[C@@H]5C(=O)O)ccc43)ccc2n1C (single isomer, unassigned) [Example 241] | 1.26 |
| 0.0631 | Cc1nc2cc(S(=O)(=O)N(C)c3ccc([C@@H]4C[C@@]5(CCCO5)C[C@H](C(=O)Nc5ccc(C(F)(F)F)cc5F)[C@H]4C(=O)O)cc3)ccc2n1C (stereo in doubt) [Example 387, rel-(5R,7R,8R,9S)-7-((2-fluoro-4-(trifluoromethyl)phenyl)carbamoyl)-9-(4-((N,1,2-trimethyl-1H-benzo[d]imidazole)-5-sulfonamido)phenyl)-1-oxaspiro[4.5]decane-8-carboxylic acid] | 10 |
| 0.01 | Cc1nc2cc(S(=O)(=O)N(C)c3ccc([C@H]4C[C@](C)(O)C[C@@H](C(=O)Nc5ccc(C(F)(F)F)cc5F)[C@@H]4C(=O)O)cc3)ccc2n1C (racemic) [Example 357, rac-(1R,2R,4S,6S)-2-((2-fluoro-4-(trifluoromethyl)phenyl)carbamoyl)-4-hydroxy-4-methyl-6-(4-((N,1,2-trimethyl-1H-benzo[d]imidazole)-5-sulfonamido)phenyl)cyclohexane-1-carboxylic acid] | 1 |
| 0.00251 | CN(c1ccc([C@H]2CCC[C@@H](C(=O)Nc3ccc(C(F)(F)F)cc3F)[C@@H]2C(=O)O)cc1)S(=O)(=O)c1ccc2occc2c1 [Example 93, (1R,2R,6S)-2-((2-fluoro-4-(trifluoromethyl)phenyl)carbamoyl)-6-(4-(N-methylbenzofuran-5-sulfonamido)phenyl)cyclohexane-1-carboxylic acid] | 2.51 |

Continued, compound first:

| SMILES | IC50 [1] [µM] | CC50 [2] [µM] |
| --- | --- | --- |
| CN(c1ccc([C@H]2CCC[C@@H](C(=O)Nc3ccc(C(F)(F)F)cc3F)[C@@H]2C(=O)O)cc1)S(=O)(=O)c1ccc(O)c(C=O)c1 [Example 248] | 0.00316 | 3.98 |
| O=C(O)[C@@H]1[C@@H](c2ccc(-c3cncc(F)c3)cc2)CCC[C@H]1C(=O)Nc1ccc(C(F)(F)F)cc1F [Example 27, (1R,2R,6S)-2-((2-fluoro-4-(trifluoromethyl)phenyl)carbamoyl)-6-(4-(5-fluoropyridin-3-yl)phenyl)cyclohexane-1-carboxylic acid] | 0.0126 | 3.98 |
| Cc1nc2cc(S(=O)(=O)N(C)c3ccc([C@H]4CCC[C@@H](C(=O)N[C@H]5CC[C@H](C(C)(C)F)CC5)[C@@H]4C(=O)O)cc3)ccc2n1C [Example 182, (1R,2R,6S)-2-(((1r,4R)-4-(2-fluoropropan-2-yl)cyclohexyl)carbamoyl)-6-(4-((N, 1,2-trimethyl-1H-benzo[d]imidazole)-5-sulfonamido)phenyl)cyclohexane-1-carboxylic acid] | 0.00251 | 1.58 |
| Cc1nc2cc(S(=O)(=O)N(C)c3ccc([C@H]4CCC[C@@H](C(=O)NC56CC(C7CCCC7)(C5)C6)[C@@H]4C(=O)O)cc3)ccc2n1C [Example 187, (1R,2R,6S)-2-((3-cyclopentylbicyclo[1.1.1]pentan-1-yl)carbamoyl)-6-(4-((N,1,2-trimethyl-1H-benzo[d]imidazole)-5-sulfonamido)phenyl)cyclohexane-1-carboxylic acid, formic acid salt] | 0.00631 | 3.98 |
| O=C(O)[C@@H]1[C@@H](c2ccc(-c3cncnc3)cc2)CCC[C@H]1C(=O)Nc1ccc(C(F)(F)F)cc1F [Example 6, (1R,2R,6S)-2-((2-fluoro-4-(trifluoromethyl)phenyl)carbamoyl)-6-(4-(pyrimidin-5-yl)phenyl)cyclohexane-1-carboxylic acid] | 0.00631 | 10 |
| O=C(O)[C@@H]1[C@@H](c2ccc([C@H]3CCC(F)(F)C3)cc2)CCC[C@H]1C(=O)Nc1ccc(C(F)(F)F)cc1F (racemic) [Example 64, 1:1 Mixture of (1R,2S,6R)-2-(4-((S)-3,3-difluorocyclopentyl)phenyl)-6-((2-fluoro-4-(trifluoromethyl)phenyl)carbamoyl)cyclohexane-1-carboxylic acid AND (1R,2S,6R)-2-(4-((R)-3,3-difluorocyclopentyl)phenyl)-6-((2-fluoro-4-(trifluoromethyl)phenyl)carbamoyl)cyclohexane-1-carboxylic acid] | 0.0251 | 15.8 |
| Cc1nc2cc(S(=O)(=O)N(C)c3ccc([C@H]4CCC[C@@H](C(=O)Nc5ccc(C(F)(F)F)cc5F)[C@@H]4C(=O)O)cc3C#CC(C)(C)O)ccc2n1C [Example 167, (1R,2R,6S)-2-((2-fluoro-4-(trifluoromethyl)phenyl)carbamoyl)-6-(3-(3-hydroxy-3-methylbut-1-yn-1-yl)-4-((N,1,2-trimethyl-1H-benzo[d]imidazole)-5-sulfonamido)phenyl)cyclohexane-1-carboxylic acid] | 0.00501 | 20 |
| O=C(O)[C@@H]1[C@@H](c2ccc(C3=CCS(=O)(=O)C3)cc2)CCC[C@H]1C(=O)Nc1ccc(C(F)(F)F)cc1F [Example 58, (1R,2S,6R)-2-(4-(1,1-dioxido-2,5-dihydrothiophen-3-yl)phenyl)-6-((2-fluoro-4-(trifluoromethyl)phenyl)carbamoyl) cyclohexane-1-carboxylic acid] | 0.0316 | 15.8 |
| O=C(O)[C@@H]1[C@@H](c2ccc(-c3cccc4cnccc34)cc2)CCC[C@H]1C(=O)Nc1ccc(C(F)(F)F)cc1F [Example 2, (1R,2R,6S)-2-((2-fluoro-4-(trifluoromethyl)phenyl)carbamoyl)-6-(4-(isoquinolin-5-yl)phenyl)cyclohexane-1-carboxylic acid] | 1.26 | 12.6 |
